Test results taken from publication PMC5661635, “Targeting the CXCR4/CXCL12 axis with the peptide antagonist E5 to inhibit breast tumor progression” (Signal Transduction and Targeted Therapy, 2017).
No end group written: not given here.

How the values were obtained:
[1] = in vivo; cited from earlier work
CXCR4 = settings: cited from earlier work
Excerpt: Nevertheless, challenges still exist in clinical applications. […] In addition, it is known that existing pep ...

4T1 cells = experiment: Drug sensitivity under CXCL12 stimulus or conditional medium (CCK-8); type: cell-based, murine; settings: E5 10 μM; MS-5 conditional medium or medium with 200 ng ml^-1 CXCL12; paclitaxel 4, 20, 100 nM, elemene 10, 20, 40 mg l^-1, cisplatin 2, 4, 8 μM; 24 h
Description: Briefly, 1×10^4 4T1 cells were pre-seeded in 96-well culture plates and incubated overnight. Then, the cells were treated with 10 μM E5 in serum-free medium for 2 h, followed by the addition of either complete medium with 200 ng ml^−1 CXCL12 or conditional medium obtained from 48 h of incubation with MS-5 cells for an additional 4 h of treatment. After that, the cells were incubated the chemotherapeutic drugs paclitaxel (4, 20 and 100 nM), elemene (10, 20 and 40 mg l^−1), or cisplatin (2, 4 and 8 μM) for an additional 24 h. The 4T1 cell viability was analyzed using the CCK-8 assay. The absorbance value of 4T1 cells in the absence of drug treatment was set as 100%.

HUVECs = experiment: CCK-8 cell viability assay; type: cell-based, human; settings: E5 concentrations up to 100 μM, 24 h
[2] = E5 every other day in healthy BALB/c mice; cited from earlier work
Description: (§1) The cytotoxicity of blocking CXCR4 with antagonists depends on the concentration and the cell types. For instance, CXCR4 antagonist BKT140 could induce 15–35% cell death at 4 or 8 μM. When its concentration was high as 20 μM, the cell death rate was about 60%.[35]

[3] = test system: multiple acute myeloid leukemia cell lines; settings: E5 below 30 μM; cited from earlier work
Description: as §1

4T1 tumors = experiment: 4T1 breast cancer model in BALB/c mice; type: in vivo; settings: day 33 after inoculation; E5 40 mg kg^-1 s.c. every other day; PTX 8 mg kg^-1 i.p. once a week; n=9
Description: For animal experiments, 1×10^6 4T1 cells were orthotopically inoculated into the right fourth mammary fat pat of BALB/c mice. Seven days after inoculation, the mice were randomized in six groups (n=9 for each group): the control group, the E5 (40 mg kg^−1) group, the chemotherapeutic drug groups (cyclophosphamide (CTX, 90 mg kg^−1) or paclitaxel (PTX, 8 mg kg^−1)), and a group consisting of E5 combined with one of the drugs. E5 solution was subcutaneously injected around solid tumors every other day, and drugs were intraperitoneally injected once a week. The control tumor-bearing mice were treated an equal volume of solvent. The tumor sizes were measured every four days with a caliper. Tumor volume was calculated according to the formula: V=(a×b^2)/2, where a and b are the maximal and minimal diameter in millimeters, respectively. On day 33 after cell injection, the mice were killed by cervical dislocation. The tumors and main organs from each group were weighed immediately after dissection and preserved at −80 °C for further analysis.

Molecule: LY2510924
- half-life [1]: 3 to 5 h

Molecule: c1cc(CN2CCCNCCNCCCNCC2)ccc1CN1CCCNCCNCCCNCC1 [AMD3100, Plerixafor]
- agonist activity (CXCR4): weak partial agonist activity

Molecule: GGRSFFLLRRIQGCRFRNTVDD [E5]
- effect on cytotoxic effects of paclitaxel, elemene and cisplatin to 4T1 (4T1 cells): could enhance the cytotoxic effects
- cytotoxicity to HUVECs (HUVECs): did not show obvious cytotoxicity
- side effects (organs weight, serum clinical parameters, H&E of heart, kidney, lung, spleen) [2]: did not show detectable side effects
- direct induction of cell death [3]: did not induce cell death directly

Molecule: CC(=O)O[C@H]1C(=O)[C@@]2(C)[C@H]([C@H](OC(=O)c3ccccc3)[C@]3(O)C[C@H](OC(=O)[C@H](O)[C@@H](NC(=O)c4ccccc4)c4ccccc4)C(C)=C1C3(C)C)[C@]1(OC(C)=O)CO[C@@H]1C[C@@H]2O [PTX, paclitaxel]
- effect on tumor weight compared with the control group (4T1 tumors): did not show a significant inhibitory effect
